Experimental data published in ChEMBL document CHEMBL1122562, “Synthesis of 3-hydroxy-2- and -4-pyridone nucleosides as potential antitumor agents” (1984).
Activity calls are given as the source filed them. The rule behind the calls is not given here.

Tests used:
P388 [1] = test: Compound was tested in vitro for its inhibitory activity against murine P-388 leukemia at doses ranging from 25 to 400 mg/kg qd 1-5 minimally active T/Cvalues of 125 in this tumor system; format: functional, organism-based; settings: Mus musculus
P388 [2] = test: Compound was tested in vitro for its inhibitory activity against murine P-388 leukemia; format: functional; settings: Mus musculus, read-out: ID50 (the source's name)
P388 [3] = test: Compound was tested in vitro for its inhibitory activity against murine P-388 leukemia at doses ranging from 25 to 400 mg/kg qd 1-5; minimally active T/Cvalues of 125 in this tumor system; format: functional, organism-based; settings: Mus musculus

| IC50 (P388 [2]) | Compound | ID50 (P388 [3]) | also measured |
| --- | --- | --- | --- |
|  | O=c1c(O)cccn1[C@@H]1O[C@H](CO)[C@@H](O)[C@@H]1O |  | ID50 (P388 [1]): inactive |
| 60 µM | Cc1c(O)c(=O)ccn1C1O[C@H](CO)[C@@H](O)[C@H]1O (stereo partly drawn) |  |  |
| 110 µM | Cc1nccc(O)c1O |  |  |
|  | CC(=O)OC[C@H]1O[C@@H](n2cccc(OC(C)=O)c2=O)[C@H](OC(C)=O)[C@@H]1OC(C)=O | inactive |  |
| 300 µM | Oc1cccnc1O |  |  |
| 450 µM | O=c1c(O)cccn1[C@@H]1O[C@H](CO)[C@@H](O)[C@H]1O |  |  |
|  | Cc1c(O)c(O)cc[n+]1C1O[C@H](CO)[C@@H](O)[C@@H]1O (stereo partly drawn) | inactive |  |
|  | COc1c(C)n(C2O[C@H](CO)[C@@H](O)[C@H]2O)ccc1=O (stereo partly drawn) | inactive |  |
